Results from paper PMC5983452 (PLoS ONE, 2018).
Where two headings read alike, the source gives them in different places. Each block holds one compound with its values, some of them ahead of it.

Experiments:
KYSE-150 = assay: Cell proliferation, KYSE-150; assay type: cell-based; conditions: Homo sapiens, read-out: Cellular Proliferation IC50
Procedure: (§1) Cell lines used in these experiments were obtained from the following sources and were cultured according to conditions specified by the respective cell banks. […] The cell lines listed above were tested for mycoplasma and were negative. Cells were authenticated by STR method or vendor protocols. All 313 cell lines in the CRIPSR pooled screen were purchased from commercial vendors and were STR authenticated and mycoplasma negative. A broad panel of cancer cell lines was screened in the Eurofins Oncopanel. All cells in this panel were mycoplasma negative and STR verified.
Thus, 5 compounds representing 4 distinct pharmacophore series of SMYD2 inhibitors are now available for testing the dependence of cancer lines on SMYD2 activity. […] In stark contrast, however, no correlation is seen between the potency for BTF3 methylation inhibition and anti-proliferative activity among these compounds (Fig 3B).

SMYD2 [1] = biological target: T1, SMYD2 (Homo sapiens, UniProt Q9NRG4); assay: Intracellular BTF3 monomethylation (BTF3me1) western blot; assay type: cell-based; parameters: endogenous in cells; host or cells: 313 cancer cell lines; conditions: read-out: Intracellular Methylation IC50
Procedure: Cells were lysed in 1X RIPA Buffer containing 10% SDS and Halt™ Protease Inhibitor Cocktail (Thermo Fisher Scientific) and incubated on ice for 30 minutes before sonication (Amplitude 20%/10sec) twice. Lysates were spun at […] at 4°C for 10min and normalized for protein concentration by BCA assay (Thermo Fisher Scientific). […] Blots were imaged using the Odyssey Imaging System (LICOR Biosciences). […] BTF3me1 is a custom generated polyclonal antibody, affinity purified from serum of rabbits injected with adjuvant conjugated peptide corresponding to methylated K1 of BTF3 (K(Me)-[…]).
SMYD2 catalyzes the methylation of lysine residues on several proteins, including BTF3 [40].

SMYD2 [2] = biological target: T1, SMYD2; assay: SMYD2 biochemical methylation assay (3H-SAM, H3,1–29 peptide, flashplate); parameters: Full length FLAG-SMYD2 and C-terminally Avi-tagged full length SMYD2 (SMYD2-Avi) were cloned into pFastbac vectors; FLAG (N); His tag with TEV cleavage site (N, cleaved yes); made in house; host or cells: Sf9 insect cells (baculovirus)
Procedure: Full length FLAG-SMYD2 and C-terminally Avi-tagged full length SMYD2 (SMYD2-Avi) were cloned into pFastbac vectors containing an N-terminal His tag with TEV cleavage site. Virus production was performed using standard protocols and the proteins were coexpressed in either Sf9 (SMYD2) or Hi Five (SMYD2-Avi) cells. After harvest by centrifugation, cell pellets for both proteins were resuspended, sonicated, and then centrifuged to remove cell debris. Protein was purified using nickel affinity chromatography before and after TEV cleavage in a similar fashion as SMYD3. […] SMYD2-Avi was biotinylated using His-tagged BirA enzyme after dialysis into a low salt buffer and the BirA was removed with a final nickel affinity column. […] SMYD3 assays were performed as previously described using N-terminally GST-tagged MAP3K2 protein substrate. […] Reactions were conducted at room temperature with enzyme and inhibitor incubated for 30 minutes before initiating the reaction with substrates. Dose-response curves were tested in duplicate in each experiment. […] Quenched reactions were transferred to a streptavidin-coated flashplate (Perkin Elmer) for capture of the biotinylated peptide. After 2 h incubation at room temperature, the flashplate was washed once with 0.1% Tween-20 and read on a Perkin Elmer Topcount NXT plate reader. Substrate apparent KM values were determined by measuring the initial velocities (v0) in duplicate while varying one substrate at fixed concentration of the second substrate. […] Percent inhibition by compound (% inh) was calculated from Eq 3 %inh=(1-([…] the signal in the presence of compound and max and min are the signals for the DMSO and background controls respectively. […] Mechanism of inhibition was determined by measuring the inhibitor IC50 values while varying the concentration of one substrate at a fixed concentration of the second substrate equal to its KM value. The inhibition constant Ki was calculated from fitting the IC50 versus varied substrate concentration data using the Cheng-Prusoff equations for mixed-type and noncompetitive inhibition below. α is the coefficient accounting for differences in inhibitor affinity between binding enzyme forms after versus before substrate binding.

[3] = tested on: cell lines found to be sensitive to LLY-507; conditions: cited from earlier work
SMYD3 [4] = biological target: T2, SMYD3 (Homo sapiens, UniProt Q9H7B4); conditions: read-out: Kd for binding to SMYD3; cited from earlier work
T2 sequence (Q9H7B4 1-428): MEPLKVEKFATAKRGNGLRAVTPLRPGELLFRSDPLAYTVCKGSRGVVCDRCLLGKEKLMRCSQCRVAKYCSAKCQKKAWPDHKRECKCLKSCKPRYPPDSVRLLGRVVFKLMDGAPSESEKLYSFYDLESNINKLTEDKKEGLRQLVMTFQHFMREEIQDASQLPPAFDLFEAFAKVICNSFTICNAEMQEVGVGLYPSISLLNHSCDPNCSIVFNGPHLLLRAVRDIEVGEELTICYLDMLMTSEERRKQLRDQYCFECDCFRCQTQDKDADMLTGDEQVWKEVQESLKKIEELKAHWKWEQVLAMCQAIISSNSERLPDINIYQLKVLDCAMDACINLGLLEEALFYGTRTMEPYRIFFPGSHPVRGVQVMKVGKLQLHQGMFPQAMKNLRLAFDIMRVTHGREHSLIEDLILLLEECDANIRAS

several cell lines = conditions: cited from earlier work
SMYD3 [5] = biological target: T2, SMYD3; parameters: endogenous in cells; host or cells: 313 cancer cell lines; method as in Mitchell et al (2016); conditions: read-out: Intracellular Methylation IC50; MAP3K2 methylation; ref Mitchell et al (2016); cited from earlier work
SMYD3 [6] = biological target: T2, SMYD3; parameters: Protein purification of both isoforms of full length SMYD3 was performed as previously reported; made in house; method as in Mitchell et al (2016); conditions: read-out: Biochemical IC50, ref Mitchell et al (2016); cited from earlier work
[7] = tested on: panel of 240 cancer cell lines; assay: Proliferation in a broad panel of 240 cancer cell lines, 2D culture (Eurofins Panlabs Oncopanel); assay type: cell-based; conditions: for IC50: read-out: anti-proliferative IC50 across the panel of 240 cancer cell lines, 2D culture
Procedure: as §1

SMYD3 [8] = biological target: T2, SMYD3; assay: SMYD3 biochemical methylation assay (3H-SAM, GST-MAP3K2/MEKK2 substrate); parameters: Protein purification of both isoforms of full length SMYD3 was performed as previously reported; made in house; conditions: tested in duplicate; read-out: selectivity panel result, SMYD3 (off-target)
Procedure: SMYD3 assays were performed as previously described using N-terminally GST-tagged MAP3K2 protein substrate. […] Reactions were conducted at room temperature with enzyme and inhibitor incubated for 30 minutes before initiating the reaction with substrates. Dose-response curves were tested in duplicate in each experiment. […] Quenched reactions were transferred to a streptavidin-coated flashplate (Perkin Elmer) for capture of the biotinylated peptide. After 2 h incubation at room temperature, the flashplate was washed once with 0.1% Tween-20 and read on a Perkin Elmer Topcount NXT plate reader. Substrate apparent KM values were determined by measuring the initial velocities (v0) in duplicate while varying one substrate at fixed concentration of the second substrate.
Mechanism of inhibition was determined by measuring the inhibitor IC50 values while varying the concentration of one substrate at a fixed concentration of the second substrate equal to its KM value.

several enzymes = tested on: several enzymes; parameters: method as in http://www.chemicalprobes.org; conditions: ref http://www.chemicalprobes.org; cited from earlier work
SMYD2 [9] = biological target: T1, SMYD2; conditions: read-out: apparent SAM KM (reported); p53 peptide substrate, pH 9.0; 2 (supplemental references); cited from earlier work
[10] = SMYD2, 20 nM SAM, 60 nM H3,1–29 peptide, read-out: Biochemical IC50

T1 sequence (Q9NRG4 whole entry): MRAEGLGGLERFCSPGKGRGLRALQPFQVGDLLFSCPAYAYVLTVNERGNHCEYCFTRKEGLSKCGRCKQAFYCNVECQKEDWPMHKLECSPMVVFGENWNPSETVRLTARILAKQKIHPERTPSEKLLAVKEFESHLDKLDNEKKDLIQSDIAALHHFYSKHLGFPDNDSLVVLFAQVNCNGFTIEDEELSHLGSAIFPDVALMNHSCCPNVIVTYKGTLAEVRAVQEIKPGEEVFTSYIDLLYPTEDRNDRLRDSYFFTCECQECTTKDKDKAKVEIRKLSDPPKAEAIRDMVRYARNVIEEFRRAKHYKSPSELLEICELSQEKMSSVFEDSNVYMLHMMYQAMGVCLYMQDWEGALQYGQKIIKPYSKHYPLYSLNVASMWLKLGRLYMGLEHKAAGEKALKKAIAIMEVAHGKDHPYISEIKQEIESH

IC50 (SMYD2 [1]): 13900 nM
IC50 (SMYD2 [2]; [10]): 51 nM
Structure (SMILES): O=C1COc2c(CCNCCN(C(=O)CCNCCc3ccc(Cl)c(Cl)c3)C3CCCCC3)ccc(O)c2N1 [AZ505, reference compound]
IC50 (KYSE-150): 12800 nM

Structure (SMILES): CCN(C(=O)CO)[C@H]1CN(/C(=N\C#N)Nc2cccc(OC(F)F)c2)N=C1c1ccc(Cl)c(Cl)c1 [BAY-598]
impact on cell proliferation or induction of apoptosis ([3]; cell lines found to be sensitive to LLY-507): little impact
IC50 ([3]; ref Eggert et al (2016), read-out: Cellular Proliferation IC50): > 20000 nM

Structure (SMILES): NC(=O)C1CCN(CC(=O)Nc2ccc(Br)cc2)CC1 [BCI-121]
Kd (SMYD3 [4]): 11800 nM
inhibition of proliferation of several cell lines (several cell lines; at 100 µM): 20–30%
IC50 (several cell lines; ref Peserico et al (2015), read-out: Cellular Proliferation IC50): > 100000 nM

Structure (SMILES): O=C1Cc2cc(C(=O)NC3CC4CCC(C3)N4S(=O)(=O)CC3CCN(CCCC(F)(F)F)CC3)c(Cl)cc2N1 (stereo not shown) [EPZ031686]
IC50 (SMYD3 [5]): 36 nM
IC50 (SMYD3 [6]): 3 nM

IC50 [7]: > 10000 nM
IC50 (SMYD2 [1]): 31 nM
IC50 (SMYD3 [8]): > 10000 nM
mechanism of inhibition with respect to peptide substrate (SMYD2 [2]; 1 nM enzyme, 20 nM SAM, varied H3,1–29): noncompetitive
IC50 (SMYD2 [2]; IC50 at 20 nM SAM, 1 nM SMYD2, 60 nM H3,1-29, 20 nM SAM): 21 ± 2 nM
IC50 (SMYD2 [2]; IC50 at 200 nM SAM, 1 nM SMYD2, 60 nM H3,1-29, 200 nM SAM): 25 ± 5 nM
IC50 (SMYD2 [2]; [10]): 16 nM
Ki (SMYD2 [2]; varied H3,1–29 peptide, Eq 6, read-out: Ki (noncompetitive versus peptide)): 21.5 ± 1.5 nM
Structure (SMILES): O=C(NC1CN(Cc2cnn(Cc3ccccc3)c2)C1)c1cn(C2CC2)nn1 [EPZ032597]
IC50 (KYSE-150): > 40000 nM
growth inhibition on repeat testing of hematologic cancer cell lines ([7]; cell lines with lower IC50 in the initial screen): < 50%

IC50 [7]: 1000 to 5000 nM
Structure (SMILES): Cc1cn(CCN2CCN(c3ccccc3-c3cc(C#N)cc(C(=O)NCCCN4CCCC4)c3)CC2)c2ccccc12 [LLY-507, reference compound]
IC50 (KYSE-150): 1800 nM
inhibition of several enzymes (off-target potency) (several enzymes): < 1000 nM

Structure (SMILES): C[S+](CC[C@H](N)C(=O)[O-])C[C@H]1O[C@@H](n2cnc3c(N)ncnc32)[C@H](O)[C@@H]1O (stereo partly drawn) [SAM, S-(5’adenosyl)-L-methionine]
Km (SMYD2 [9]): 0.03 to 0.06 µM
Km (SMYD2 [2]; 1 nM SMYD2, 60 nM H3,1–29, Eq 2, upper limit for the true KM, read-out: apparent KM for SAM): 0.00034 ± 7e-05 µM
